{
  "source": "patent US12521439B2",
  "about": "“Methods and materials for modulating Nrf2 pathway” (The General Hospital Corporation, priority 2019, dated 2026)",
  "key": {"CT2A mouse gliomas": {"tested_on": "CT2A mouse gliomas", "assay": "Immunophenotyping of tumor-infiltrating immune cells (flow cytometry)", "format": "in vivo, C57BL/6 mice", "experimental": "The effect of OBT on glioma immunomodulation in vivo was next evaluated. 50,000 CT2A cells expressing Fluc were implanted in the striatum of immunocompetent C57BL/6 mice. Two weeks post-injection, mice were i.p. injected with OBT (7.5 mg/kg body weight/day) or PBS/DMSO control, over 4 days (n=6/group). Mice were sacrificed, brains removed, and tumor tissues dissected out and homogenized. […] OBT increased intratumoral CD8+ cytotoxic T cells with higher levels of both Ki-67 and granzyme B (markers for increased activation of effector cells, abrogation of suppressive immune cells) and decreased CD4+ regulatory T cells (Treg; CD25^+Foxp3^+), typically used by the tumour to escape the immune system, leading to an increase in the ratio of CD8+ T cells over Tregs (FIG. 25B-D). […] CTLA-4, PD-1, Lag-3 and Tim-3 levels (hallmark for exhausted and anergic T cells) were not changed on any of these cells (FIG. 25B; only showing PD-1)."}, "U87 glioma cells": {"tested_on": "U87 glioma cells", "assay": "Cell viability (CellTiter-Glo), U87", "format": "cell-based, human", "conditions": "shKeap1 vs shCtr1, four days", "experimental": "Cell culture: MDA-MB-231 and U87 (U87-MG) cells were obtained from the American Type Culture Collection (ATCC). 293T human embryonic kidney fibroblasts were provided by Dr. Xandra Breakefield (Massachusetts General Hospital). All three cell lines were grown in Dulbecco's modified Eagle medium supplemented with 10% fetal bovine serum (Gemini Bio-products), 100 U penicillin, and 0.1 mg/mL streptomycin (Sigma). All cells were maintained at 37° C. in a humidified 5% CO2 incubator. GSCs were obtained from tumor tissues of GBM patients following surgical resection, under approval from the corresponding Institutional Review Board. These cells have been previously characterized (ref. 37-39) and were maintained in culture as neurospheres in Neurobasal medium (Gibco) supplemented with heparin (2 μg/mL; Sigma) and recombinant EGF (20 ng/mL) and bFGF-2 (10 ng/mL; Peprotech). Human Astrocytes were obtained from ScienCell and cultured in Astrocytes Medium (ScienCell)\nCell viability: Cells were plated in 96-well plates and treated with the corresponding compounds. Cell viability was measured by adding 25 μl/well of CellTiter-Glo (Promega) followed by 10 minutes incubation and transfer to a white 96-well plate. Bioluminescence was quantified using Synergy HTX multimode reader (Biotek)."}, "ARE (Nrf2 pathway)": {"tested_on": "ARE (Nrf2 pathway)", "assay": "ARE-Gluc luciferase reporter (normalized to SV40-Vluc)", "format": "cell-based, human", "text": "DNA expression constructs: ARE reporter was designed and generated based on our previously published reporter for monitoring of the transcription factor Nuclear Factor Kappa B (NFkB). NFkB TRE elements were removed and replaced with four copies of the ARE enhancer sequence. This reporter consists of a CSCW lentivirus vector in which we have introduced two copies of the 1.2 kb chicken beta-globin (HS4) insulator elements, a TATA box acting as a minimal promoter upstream of the secreted Gaussia luciferase (Gluc). pcDNA3-HA2-Keap1 (Addgene plasmid #21556) and pcDNA3-HA2-Keap1 delta BTB (Addgene plasmid #21593) were a gift from Yue Xiong^2. pHAGE DN Cullin 3 (DN-CUL3) was a gift from Stephen Elledge (Addgene plasmid #41913). Constructs expressing constitutively active Gluc, Firefly luciferase (Fluc) and Vargula luciferase (Vluc) were previously describe. MISSION shRNA Bacterial Glycerol Stocks for Keap1 as well as a non-target shRNA were obtained from Sigma. Transfection of plasmid DNA was performed using Lipofectamine 2000 (Invitrogen) as per manufacturer's guidelines. Lentivirus packaging and titration was performed in 293T cells by the MGH viral vector core facility following standard protocols. Keap1 mutant C151S plasmid was kindly provided by Dr. Wooyoung Hur.\nLuciferase assay: Coelenterazine (20 μM; Nanolight), The Gluc substrate was added to a 25 μL aliquot of conditioned medium and photon counts were measured using a luminometer. Similarly, the secreted Vluc activity was measured by adding its substrate vargulin (5 ng/mL; Nanolight). Cells stably expressing Gluc under the ARE enhancer sequence and Vluc under the constitutively active SV40 minimal promoter were used to determine the ARE reporter activity. The normalized Gluc/Vluc ratio was used as a marker for ARE activation."}},
  "data": [
    {"molecule": "COC1=CC(=O)C(O)=C/C1=C/C=C/c1ccccc1", "note": "[OBT, (Z)-2-hydroxy-5-methoxy-4-((E)-3-phenylallylidene)cyclohexa-2,5-dien-1-one]", "values": [
      {"measurement": "CD4+ regulatory T cells (Treg; CD25+Foxp3+)", "setting": "CT2A mouse gliomas; 7.5 mg/kg/day i.p. over 4 days", "result": "decreased"},
      {"measurement": "Ki-67 and granzyme B in CD8+ T cells", "setting": "CT2A mouse gliomas; 7.5 mg/kg/day i.p. over 4 days", "result": "higher levels"},
      {"measurement": "dendritic cells", "setting": "CT2A mouse gliomas; 7.5 mg/kg/day i.p. over 4 days", "result": "significant increase"},
      {"measurement": "intratumoral CD8+ cytotoxic T cells", "setting": "CT2A mouse gliomas; 7.5 mg/kg/day i.p. over 4 days", "result": "increased"},
      {"measurement": "levels of CD4+ T cells", "setting": "CT2A mouse gliomas; 7.5 mg/kg/day i.p. over 4 days", "result": "did not change"},
      {"measurement": "number of microglia and macrophages", "setting": "CT2A mouse gliomas; 7.5 mg/kg/day i.p. over 4 days", "result": "not changed"},
      {"measurement": "ratio of CD8+ T cells over Tregs", "setting": "CT2A mouse gliomas; 7.5 mg/kg/day i.p. over 4 days", "result": "increase"},
      {"measurement": "CTLA-4, PD-1, Lag-3 and Tim-3 levels", "setting": "CT2A mouse gliomas; T cells", "result": "not changed"},
      {"measurement": "CD47", "setting": "CT2A mouse gliomas; on all three cell types", "result": "significantly downregulated"},
      {"measurement": "PD-L1", "setting": "CT2A mouse gliomas; on microglia, dendritic cells, macrophages", "result": "did not have an effect"},
      {"measurement": "cell death after silencing of Keap1", "setting": "U87 glioma cells", "result": "decreased cell death"},
      {"measurement": "OBT-induced ARE activation and loss of cell viability with thiol antioxidants", "setting": "ARE (Nrf2 pathway); addition of NAC, DTT, GSH, U87", "result": "completely reversed"},
      {"measurement": "OBT-induced ARE activation and loss of cell viability with Trolox", "setting": "ARE (Nrf2 pathway); addition of Trolox, U87", "result": "only partially"},
      {"measurement": "ARE luciferase reporter activity", "setting": "ARE (Nrf2 pathway); sub-toxic doses, higher than positive control tBHQ, U87 and MDA-MB-231", "result": "strongly activated"}
    ]}
  ]
}
